Laboratory results taken from US9512440B2, “Modulation of receptor-like kinases for promotion of plant growth” (IOWA STATE UNIVERSITY RESEARCH FOUNDATION, INC., priority 2009, dated 2016).

Key:
CrRLK family members = settings: 10 nM BL for 3 hr; cited from earlier work
[1] = test system: herk1 the1 double mutant 24-day-old adult plants; assay: Affymetrix microarray gene expression, herk1 the1 double mutant adult plants with BL; assay type: in vivo, Arabidopsis thaliana
Procedure: (§1) Microarray experiments were performed with 24-day-old adult plants. The whole plants were sprayed with either water or […] and incubate for 2.5 hours. The plants were pooled into three groups as triplicates (8 plants per group). Total RNA was prepared with RNeasy Plant Mini Kit (QIAGEN) and used to make probes for microarray experiments with Affymetrix Arabidopsis Genomic arrays. The probe labeling, hybridization, and scanning were performed according to manufacture's instructions. Microarray data was normalized by the MAS 5.0 method implemented in the R package affy and the linear model was applied to two sample comparison (samples with and without BL treatment or WT compared to mutant) using the limma package (39, 40). Genes with an adjusted p-value <=0.01 were considered to be differentially expressed. The BR-induced genes, HERK1/THE regulated genes were used for clustering analysis with the GENESPRING program (Silicon Genetics) using Pearson Correlation.

[2] = test system: wild-type 24-day-old adult plants; assay: Affymetrix microarray gene expression, wild-type adult plants with BL; assay type: in vivo, Arabidopsis thaliana
Procedure: as §1

CrRLK1L family RLKs = assay: microarray of CrRLK1L family expression, 2-week-old seedlings with or without BL; assay type: in vivo, Arabidopsis thaliana; settings: wild-type (En-2), BL 1 uM, 3 hr
Procedure: (9A) The expression of CrRLK family RLKs by BL in WT and bes1-D mutant. Microarrays were performed with 2-week-old seedlings with or without BL treatment (1 uM, 3 hr). At5g38990 and At5g39000 have the same probe set in Affymetrix ATH1 Genome arrays, so only the former is shown. (9B) BR responses of the indicated mutants at the seedling stage, performed as described. (9C) Plant phenotypes of 24-day-old adult plants. The bar represents 10 mm. (9D) Petiole lengths of the sixth leaf in WT and mutants. Averages and standard deviations from 10 plants are shown. (E) A model for HERK signaling and its crosstalk with BR pathway.
BRs function to regulate cell elongation and many other processes^10-13. BRs signal through a membrane-localized receptor kinase BRI1 and other signaling components^10, 14-16 to control BES1 and BZR1 family transcription factors, which mediate the expression of many genes for BR responses^17-20. […] To further confirm that these RLK genes are modulated by BRs and/or BES1, we performed a microarray experiment with bes-D mutant^19, a constitutive BR response mutant due to highly accumulated BES1 protein, with En-2 as wild-type control (L.L. & Y.Y. in preparation). The expression of all CrRLK1L members is examined (FIG. 5A).

HERK1, THE1 and FER = assay: quantitative RT-PCR of HERK1, THE1 and FER expression after hormone treatment; assay type: in vivo, Arabidopsis thaliana
Description: (1A) The expression of HERK1, THE1 and FER is induced by BL treatment in 10-day-old seedlings and 4-week-old adult plants. Triplicate biological samples were used to prepare RNA for quantitative RT PCR. The relative expression levels compared to UBQ5 gene were used to determine the BL-induction levels of each gene. The averages and standard deviations from three biological repeats are shown. […] Ten-day-old seedlings were used to prepare RNA for qRT-PCR as described in (1A). (1C-E) HERK1 cellular localization: A HERK1-GFP (1C) or BES1-D-GFP (1D) construct was introduced into protoplasts or transgenic plants (1E). HERK1 is mostly localized at the plasma membrane (1C and 1E), while BES1-D is primarily in the nucleus (1D). […] Recombinant proteins fused with MBP representing the wild-type HERK1 kinase domain (WT), and a mutant version with disrupted kinase activity (mutant), were used in kinase assay. […] The bars in 1G/1H and 1I represent 2.5 and 10 mm, respectively.
(8A) Regulation of HERK1, THE1 and FER as well as other CrRLK family members by BL. The data are derived from microarray experiments with light-growing seedlings treated with 10 nM BL for 3 hr, which is published in a public website (http://bbc.botany.utoronto.ca/efp/cgi-bin/efpWeb.cgi). […] The averages and standard deviations for 2 biological replicates are shown. (8C) the herk1 the1 double mutant has a normal GA response in a hypocotyl elongation assay. […]
For reverse transcription-polymerase chain reaction (RT-PCR), 2 μg total RNA was reverse-transcribed to cDNA by SuperScript II Reverse Transcriptase (Invitrogen). For real-time quantitative RT-PCR, the primers were designed so that the products are between 200-300 bps. The SYBR Green PCR Master mix (Applied Biosystems) was used and the PCR reactions were run on the Mx4000® multiplex quantitative PCR system (Stratagene). Two or three biological replicates were each analyzed with 2-3 RT-PCR reactions. For semi-quantitative RT-PCR, the same amount of cDNA was used for each PCR reaction. […]

[3] = adult plants, microarray, adjusted p-value <=0.01

In the case of `CC(C)[C@H](C)[C@@H](O)[C@H](O)[C@@H](C)[C@H]1CC[C@H]2[C@@H]3COC(=O)[C@H]4C[C@H](O)[C@H](O)C[C@]4(C)[C@H]3CC[C@]12C` [BL, brassinolide], the “induction of HERK1, THE1 and FER among CrRLK family members” value (CrRLK family members) is listed as “most highly induced”, the “regulation of At2g39360, At5g24010, At1g30570, At5g38990/At5g39000 and At5g39020” value (CrRLK family members) is listed as “slightly induced” and the “gene expression level At3g45960 (EXPL3)” value ([1]; herk1 the1-BL 18) is listed as 44. For the same molecule, the “gene expression level At1g20190 (EXP11)” value ([1]; herk1 the1-BL 35) was 225, the “gene expression level AT1G10550 (XTH33)” value ([1]; herk1 the1-BL 48) was 191 and the “gene expression level At1g65310 (XTH17)” value ([1]; herk1 the1-BL 95) was 302. For the same molecule, the “gene expression level At4g38400 (EXPL2)” value ([1]; herk1 the1-BL 151) was 381, the “gene expression level At2g20750 (EXPB1)” value ([1]; herk1 the1-BL 161) was 157 and the “gene expression level At4g30290 (XTH19)” value ([1]; herk1 the1-BL 162) was 259. The “gene expression level At3g07010 (PLL20)” value ([1]; herk1 the1-BL 325) was 829, the “gene expression level At2g37640 (EXP3)” value ([1]; herk1 the1-BL 340) was 594 and the “gene expression level AT1G11545 (XTH8)” value ([1]; herk1 the1-BL 357) was 1249. The “gene expression level At2g40610 (EXP8)” value ([1]; herk1 the1-BL 437) was 1586, the “gene expression level At3g45970 (EXPL1)” value ([1]; herk1 the1-BL 529) was 970 and the “gene expression level At3g23730 (XTH16)” value ([1]; herk1 the1-BL 636) was 1069. For the same molecule, the “gene expression level At3g29030 (EXP5)” value ([1]; herk1 the1-BL 1523) was 1848, the “gene expression level At4g37800 (XTH7)” value ([1]; herk1 the1-BL 1831) was 2864 and the “gene expression level At1g04680 (PLL26)” value ([1]; herk1 the1-BL 1982) was 2932. The “gene expression level At2g28950 (EXP6)” value ([1]; herk1 the1-BL 2074) was 1919, the “gene expression level AT5G57560 (XTH22)” value ([1]; herk1 the1-BL 2728) was 7941 and the “gene expression level At1g69530 (EXP1)” value ([1]; herk1 the1-BL 3595) was 6462. The “gene expression level At2g06850 (XTH4)” value ([1]; herk1 the1-BL 5096) was 11194, the “gene expression level At3g45960 (EXPL3)” value ([2]; WT + BL, WT-BL 24) was 92 and the “gene expression level AT1G10550 (XTH33)” value ([2]; WT + BL, WT-BL 47) was 223. For the same molecule, the “gene expression level At1g65310 (XTH17)” value ([2]; WT + BL, WT-BL 137) was 214, the “gene expression level At1g20190 (EXP11)” value ([2]; WT + BL, WT-BL 141) was 395 and the “gene expression level At4g30290 (XTH19)” value ([2]; WT + BL, WT-BL 153) was 297. For the same molecule, the “gene expression level At4g38400 (EXPL2)” value ([2]; WT + BL, WT-BL 188) was 433, the “gene expression level At2g20750 (EXPB1)” value ([2]; WT + BL, WT-BL 295) was 198 and the “gene expression level At2g37640 (EXP3)” value ([2]; WT + BL, WT-BL 384) was 641. The “gene expression level At3g07010 (PLL20)” value ([2]; WT + BL, WT-BL 427) was 939, the “gene expression level AT1G11545 (XTH8)” value ([2]; WT + BL, WT-BL 453) was 1178 and the “gene expression level At3g23730 (XTH16)” value ([2]; WT + BL, WT-BL 559) was 819. The “gene expression level At3g45970 (EXPL1)” value ([2]; WT + BL, WT-BL 581) was 1339, the “gene expression level At2g40610 (EXP8)” value ([2]; WT + BL, WT-BL 1006) was 2407 and the “gene expression level AT5G57560 (XTH22)” value ([2]; WT + BL, WT-BL 2277) was 7344. The “gene expression level At3g29030 (EXP5)” value ([2]; WT + BL, WT-BL 2323) was 2112, the “gene expression level At1g04680 (PLL26)” value ([2]; WT + BL, WT-BL 2466) was 3402 and the “gene expression level At4g37800 (XTH7)” value ([2]; WT + BL, WT-BL 2899) was 3419. The “gene expression level At2g28950 (EXP6)” value ([2]; WT + BL, WT-BL 3287) was 2524, the “gene expression level At1g69530 (EXP1)” value ([2]; WT + BL, WT-BL 6798) was 8465 and the “gene expression level At2g06850 (XTH4)” value ([2]; WT + BL, WT-BL 7247) was 13455. The “number of genes whose expression BL induces” value [2, 3] was 650, the “number of genes whose expression BL represses” value [2, 3] was 520 and the “regulation of FER, THE1, HERK1, At1g30570 (HERK2), At2g39360 and At5g24010” value (CrRLK1L family RLKs) was “slightly upregulated”. For the same molecule, the “up-regulation of HERK1, THE1 and FER expression” value (HERK1, THE1 and FER; seedlings and/or adult plants, relative to UBQ5, p<0.01) was 20-80%.
With `C=C1C[C@]23C[C@@]1(O)CC[C@H]2[C@@]12C=C[C@H](O)[C@@](C)(C(=O)O1)[C@H]2[C@@H]3C(=O)O` [GA3] the “regulation of expression of HERK1, THE1, and FER” value (HERK1, THE1 and FER; 10-day-old seedlings, qRT-PCR) was “up-regulates”.
With `O=C(O)Cc1c[nH]c2ccccc12` [IAA] the “regulation of expression of HERK1” value (HERK1, THE1 and FER; 10-day-old seedlings, qRT-PCR) was “appears to induce”.
